From patent US11491117B2, “Compounds for the prevention and treatment of glucose intolerance related conditions and obesity” (SORBONNE UNIVERSITÉ, priority 2017, dated 2022)

Legend:
pancreas gene expression = experiment: Quantitative RT-PCR in pancreas of chronically treated GK rats; type: in vivo, rat
Method: (§1) RNA was extracted from pancreas, adipose tissue and liver using the RNeasy RNA Mini Kit (Qiagen, Courtaboeuf, France). Reverse transcription was performed from a 20 μL reaction mixture with 500 ng RNA using M-MLV reverse transcriptase kit (ThermoFisher, Villebon, France). Quantitative RT-PCR was performed using sequence specific primers and the MESA green kit for SYBR green assays (Eurogentec, Angers, France). We used 18S and/or cyclophilin house keeping genes to normalize relative quantification of mRNA levels using the Livak and […] methods ([…], 2001).

[1] = system: C57BL/6J mice fed control chow diet (CHD) or high fat diet (HFD); experiment: Chronic subcutaneous infusion in mice fed control chow or high fat diet: body growth, glucose homeostasis (IPGTT), insulin secretion, organ weight, liver triglycerides; type: in vivo, mouse
Method: Six weeks-old C57BL/6J male mice (Janvier Labs, Courtaboeuf, France) were received and acclimated in specific pathogen free (SPF) maintenance condition. Mice had free access to a standard chow diet (R04-40, Safe, Augy, France) and were kept on 12 h light/dark cycle. After one week, a group of 12 mice was fed control carbohydrate diet (CHD) (D 12450Ki, Research diets, NJ) and a group of 12 mice was fed high fat (60% fat and sucrose) diet (HFD) (D12492i, Research diets, NJ).
After three weeks of metabolite treatment (i.e. four weeks of HFD feeding) an intra-peritoneal glucose tolerance test (IPGTT) (2 g/kg) was performed in conscious mice following an overnight fast. Blood was collected from the tail vein before glucose injection and 15, 30, 60 and 120 minutes afterwards. Additional blood samples were collected during the IPGTT in GK rats 15, 90, 180 and 240 minutes after glucose injection. Blood glucose levels were determined using an Accu-Check® Performa (Roche Diagnostics, Meylan, France). Additional blood samples were collected at base line and 30 minutes after glucose injection in Microvette® CB 300 Lithium Heparin (Sarstedt, Marnay, France). Plasma was separated by centrifugation and stored at −80° C. until insulin radioimmunoassay. Evaluation of overall glucose tolerance was obtained from cumulative glycemia (GCum) and the ΔG, which were determined by the total increment of plasma glucose values during the IPGTT (GCum) and the cumulative glycemia during the test above baseline (ΔG). After six weeks of metabolite treatment, mice were killed by decapitation and organ were dissected and weighed. Half of liver, fat and pancreas samples were snap frozen in liquid nitrogen and stored at −80° C. for molecular studies, and the second half processed for histopathology. All procedures were authorized following review by the institutional ethic committee and carried out under national license condition (Ref 00486.02).
Blood glucose was measured using an Accu-Check® Performa (Roche Diagnostics, Meylan, France) and plasma insulin was determined using Insulin ELISA kits (Mercodia, Uppsala, Sweden). For determination of liver triglycerides, liver samples (100 mg) were homogenized and incubated in NonidetP-40 (5%) and supernatants containing triglycerides were collected. Triglycerides concentration was quantified in the supernatant fraction using a colorimetric assay (ab65336, Abcam, Paris, France) by measuring OD at 570 nm. The ratio NAD/NADH was determined using a quantification kit (MAK037; SigmaAldrich, St Quentin, France) on extracts prepared from 20 mg pancreas tissue. Samples were homogenized in the extraction buffer and clarified by centrifugation. Supernatant was deproteinized by filtration through a 10-kDa cutoff spin filter (Millipore SAS, Molsheim, France). The assay was then performed according to the manufacturer's instructions.
As expected, mice fed HFD rapidly gained more weight than mice fed control diet and developed fasting hyperglycemia and marked glucose intolerance (FIG. 1A-1F).

[2] = system: adipose tissue gene expression; experiment: Quantitative RT-PCR in retroperitoneal fat pads of chronically treated mice; type: in vivo, mouse
Method: as §1, with “Transcript abundance of key genes regulating adipose tissue biology was tested by quantitative RT-PCR in retroperitoneal fat pads of mice fed control chow diet (CHD) or high fat diet (HFD). Data were analyzed using the unpaired Mann-Whitney test. […] RNA was” for “RNA was”

[3] = mice fed control diet, IPGTT, vs saline

Cc1ccc(O)cc1 [4-cresol]
stimulatory effects on expression of Sirt1, Ins1, Hnf1α, IL10 and Vegfa in pancreas (pancreas gene expression; GK rats): replicated
pancreatic expression of ERα (pancreas gene expression; GK rats in vivo): does not regulate significantly
DYRK1A pancreatic transcription (pancreas gene expression; GK rats, chronic treatment): significant downregulation
expression of genes encoding amylase, IL6 and Tnf in pancreas (pancreas gene expression; GK rats, differences to saline not statistically significant): strongly altered
effect on body weight ([1]; HFD-fed mice): strongly significant
effect on glycemic control ([1]; HFD-fed mice): strongly significant
effect on insulin secretion ([1]; HFD-fed mice): strongly significant
liver weight ([1]; HFD-fed mice): reduced
ΔG parameter ([1]; HFD-fed mice, IPGTT, vs HFD saline): normalized to the level of mice fed chow diet and treated with saline
fasting glycemia ([1]; HFD-fed mice, vs HFD saline): strong reduction
fasting hyperinsulinemia ([1]; HFD-fed mice, vs HFD saline): strong reduction
increase in pancreas weight ([1]; both diet groups, 6 weeks, vs saline): 48.9%
liver triglycerides content ([1]; both diet groups, vs saline): systematic and dramatic reduction
heart weight ([1]; mice fed CHD or HFD, 6 weeks): not affected
kidney weight ([1]; mice fed CHD or HFD, 6 weeks): not affected
acute glycemic response to the glucose challenge [1, 3]: significant reduction
glucose tolerance [1, 3]: improved
BMI ([1]; mice fed control diet, end of experiment, vs saline): significant decrease in BMI
body weight ([1]; mice fed control diet, s.c. infusion 0.5 mg/kg/day, 42 days, vs saline): progressive reduction in body weight
glucose-stimulated insulin secretion ([1]; mice fed control diet, vs controls): significant increase
cumulative glycemia during the IPGTT ([1]; mice fed control diet, vs saline): significant reduction
Ucp1 expression in adipose tissue ([2]; CHD fed mice): markedly downregulated
expression of Sirt1, Cav2, Hsl and Pnpla2 (Atg1) in adipose tissue ([2]; CHD fed mice): significantly stimulated
Ucp1 expression in adipose tissue ([2]; HFD-fed mice, vs HFD saline and CHD 4-cresol): significantly downregulated
expression of Hsl and Pnpla2 in adipose tissue ([2]; HFD-fed mice, vs saline treated fat fed mice): significantly upregulated
